Values quoted from earlier work, collected in publication PMC4412765 (Chemical biology & drug design, 2014).

Tested on: S. aureus
Conditions: cited from earlier work

In the case of C(=C\c1cc2ccc(C3=NCCN3)cc2[nH]1)/c1cc2ccc(C3=NCCN3)cc2[nH]1 [BPH-1417], the “in vitro activity against S. aureus” value is given as “potent”.
